According to patent US20260216232A1, “SEVUPARIN FOR THE TREATMENT OF CHRONIC KIDNEY DISEASE” (Modus Therapeutics AB, priority 2022, published 2026):
Like-named read-outs stand apart in the source and are kept apart here. Marks after values point to notes of the source that are not given here.

Key:
[1] = system: Kidney Disease and Anemia of Kidney Disease (KD) Mouse Model; experiment: Anemia of CKD mouse model (adenine rich diet), Example 3: blood and serum analysis, body weight; format: in vivo, C57BL/6J male mice
Excerpt: (§1) All experimental procedures were approved by the Animal Care and Use Committee of University of Brescia. All animals were maintained on normal diet (“Chow” or Standard diet, 4RF21, obtained from Mucedola s.r.l) if not specified otherwise as part of the “Anemia of Chronic Kidney Disease (CKD) mouse model” experiment as described below.
(§2) Animals. The C57BL/6J male mice were purchased from Envigo RMS S.r.l.
(§3) Kidney damage, kidney disease and anemia were induced by an adenine high phosphorus diet denoted as “adenine rich diet” (ARD) (0.2% Adenine; 0.9% Phosphorus; 0.6% Calcium; 20% Casein; Cod. S1102-E750 (purchased from Charles River, Manufacturer: Ssniff Spezialdiäten GmbH).
(§4) ARD was fed to C57BL/6J male mice having reached an age of five-weeks. […] All animals were maintained on ARD or normal diet (Standard diet, 4RF21, Mucedola s.r.l), at timings and extents described in detail for each experiment below. Groups of mice were also kept under normal diet (Standard diet) as healthy control group, for each experiment. Mice had access to food and diet ad libitum.
(§5) Adenine rich diet (ARD) (0.2% Adenine; 0.9% Phosphorus; 0.6% Calcium; 20% (Ssniff Spezialdiäten GmbH), sevuparin 10 mg/kg (Opocrin S.p.A., Apotek Produktion & Laboratorier AB, subcutaneously administered, sc), erythropoietin (EPO, Darbepoietin alfa, Aranesp, AMGEN INC.) intraperitoneally adminstered, ip)
(§6) The hematological parameters hemoglobin (Hb) and hematocrit (Ht) were analyzed using the Hemo Vet Instrument (Infratech) by collecting a single drop of blood from the dorsal pedal vein. The animals weight were monitored weekly in the morning at the following time points of treatment: At start of treatment (P0); after one week of treatment (T1); after two weeks of treatment (T2); after three weeks of treatment (T3); after four weeks of treatment (T4); after five weeks of treatment (T5); after six weeks of treatment (T6); after seven weeks of treatment (T7); after eight weeks of treatment (T8); and after nine weeks of treatment (T9).
(§7) Reticulocyte hemoglobin content (Ret-He), serum hepcidin and serum creatinine (analysis performed by Izler Institute) were analyzed at the end of each experiment)
(§8) Mice were sacrificed at the indicated time points and blood and kidneys were collected for analysis at the end-point of each experiment.
(§9) At the end-point, mouse serum hepcidin was quantified using ELISA kit (Cod. SKU #HMC-001; Intrinsic LifeScience).
(§10) Serum creatinine and blood Reticulocytes-hemoglobin (Ret-He) were analyzed by IZLER Institute (Istituto Zooprofilattico Sperimentale della Lombardia e Dell′Emilia Romagna), using standard procedures.
ARD Pretreatment for 5.5 Weeks Followed by 3 or 6 Weeks Treatment with Control, Sevuparin, Erythropoietin (EPO), or a Combination of EPO and Sevuparin
C57BL/6J male mice were exposed to ARD pretreatment for 5.5 weeks followed by either 3 or 6 weeks of randomized allocation to treatments as defined below still with maintained ARD exposure. One group of mice was given normal diet (no ARD) for the entire experiment, as healthy control. • a) Treatment control: mice treated with PBS s.c. every day for 3 and 6 weeks respectively. • b) Treatment with sevuparin: mice treated with 10 mg/kg Sevuparin s.c. every day for 3 and 6 weeks respectively. • c) Treatment with EPO: mice treated with 50 IU EPO i.p. twice a week for 3 weeks and mice treated with 50 IU EPO i.p. twice a week for 3 weeks followed by treatment with 25 IU EPO i.p. once a week for the subsequent 3 weeks. • d) Treatment with EPO+sevuparin: mice treated with 10 mg/kg sevuparin s.c. every day and 50 IU EPO i.p. twice a week for 3 weeks and mice treated with 10 mg/kg sevuparin s.c. every day and 50 IU EPO i.p. twice a week for the first 3 weeks followed by treatment with 10 mg/kg sevuparin s.c. every day and 25 IU EPO i.p. once a week for the subsequent 3 weeks.

mouse kidneys [2] = experiment: Example 2: macroscopic and histological status of kidneys (H&E, Sirius Red); format: in vivo, C57BL/6J male mice
Description: (§11) C57BL/6J male mice were exposed to ARD pretreatment for 9 weeks followed by 2 weeks of randomized allocation to treatments as defined below still with maintained ARD exposure, after which ARD was omitted but treatments were maintained during 7 weeks of recovery. One group of mice was given normal diet (no ARD) for the entire experiment, as healthy control. • a) Treatment with control: mice treated with PBS s.c. every day for 2+7 weeks. • b) Treatment with sevuparin: mice treated with 10 mg/kg Sevuparin s.c. every day for 2+7 weeks. • c) Treatment with […]: mice treated with 50 IU EPO i.p. twice a week for 2+7 weeks. • d) Treatment with EPO+sevuparin: mice treated with 50 IU EPO i.p. twice a week and 10 mg/kg Sevuparin s.c. every day for 2+7 weeks.

factor Xa = details: definition of sevuparin; no test described; cited from earlier work
mouse kidneys [3] = details: 3 weeks treatment, 20x magnification, compared to kidneys without sevuparin
Description: (§12) C57BL/6J male mice were exposed to ARD pretreatment for 9 weeks followed by 3 weeks of randomized allocation to treatments as defined below still with maintained ARD exposure. One group of mice was given normal diet (no ARD) for the entire experiment, as healthy control. • a) Treatment with control: mice treated with PBS s.c. every day for 3 weeks. • b) Treatment with sevuparin: mice treated with 10 mg/kg Sevuparin s.c. every day for 3 weeks.

[4] = system: Kidney Disease and Anemia of Kidney Disease (KD) Mouse Model
Excerpt: as §1, §2, §3, §4, §5, §6, §7, §8, §9, §10
ARD Pretreatment for 9 Weeks Followed by 3 Weeks Treatment with Either Control or Sevuparin
as §12

factor IIa = details: definition of sevuparin; no test described; cited from earlier work
[5] = system: Kidney Disease and Anemia of Kidney Disease (KD) Mouse Model; experiment: Anemia of CKD mouse model (adenine rich diet), Example 2: blood and serum analysis, body weight; format: in vivo, C57BL/6J male mice
Excerpt: as §1, §2, §3, §4, §5, §6, §7, §8, §9, §10
ARD Pre-Treatment for 9 Weeks Followed by 2 Weeks Treatment with Either Control, Sevuparin, Erythropoietin (EPO) or a Combination of EPO and Sevuparin, Followed by 7 Weeks Recovery without ARD but with Maintained Treatments.
as §11
Hemoglobin (Hb), hematocrit (Ht), weigh (wt), serum-creatitine (S-crea), reticulocyte hemoglobin (Ret-He) content and serum-hepcidin (nM) was measured in the mice.

[6] = ARD 5.5 weeks then treatment with maintained ARD
[7] = ARD 5.5 weeks, then 3 or 6 weeks treatment with maintained ARD (time point not given), sevuparin 10 mg/kg s.c. every day, EPO 50 IU i.p. twice a week (25 IU once a week for subsequent 3 weeks), mean
[8] = 3 weeks treatment, compared to mice not treated with sevuparin
[9] = ARD 9 weeks, then sevuparin 10 mg/kg s.c. every day for 3 weeks with maintained ARD, mean
[10] = 2+7 weeks treatment, compared to mice without any treatment / other treatment groups
[11] = ARD 9 weeks, then 2 weeks treatment on ARD + 7 weeks without ARD, sevuparin 10 mg/kg s.c. every day, EPO 50 IU i.p. twice a week, mean

sevuparin
blood level of hemoglobin (Hb), in words [1, 6]: did not increase
body weight (wt), in words [1, 6]: did not increase
hematocrit (Ht), in words [1, 6]: did not increase
serum level of creatinine (s-Crea), in words ([1]; ARD 5.5 weeks then treatment with maintained ARD, compared to mice without any treatment): reduced
Hb [1, 7]: 9.77^(3) g/dL
Ht [1, 7]: 28.67^(8) %
Ret-He [1, 7]: 14.45^(23)** pg
S-Crea [1, 7]: 0.82^(18) mg/dL
Wt [1, 7]: 17.60^(13) g
impact on the serum level of hepcidin (FIG. 3A) ([1]; at 3 weeks treatment): beneficial impact
beneficial impact on the serum level of hepcidin vs control (FIG. 3B) ([1]; at 6 weeks treatment): no longer present
kidney damage, H&E staining (FIG. 2B) (mouse kidneys [2]; 40x magnification, 11 weeks of adenine diet, compared to the untreated control): reduced the damage
collagen deposits (fibrosis), Sirius Red Staining (FIG. 2B) (mouse kidneys [2]; 40x magnification, compared to AD 11 weeks+PBS): reduction of the collagen deposits
physical status of the mouse kidneys, macroscopic photographs (FIG. 2A) (mouse kidneys [2]; compared to mouse kidneys that had not received the same therapy): substantially less cysts, more normal colour and a more homogenous appearance
antifactor Xa activity (factor Xa): up to 10 IU/mg
effect on the micrographs of the mouse kidneys (FIG. 1G) (mouse kidneys [3]): positive effect
Hematocrit levels, in words [4, 8]: increased
Hemoglobin blood levels, in words [4, 8]: increased
blood level of reticulocyte-hemoglobin (Ret-He), in words [4, 8]: increased
body weight, in words [4, 8]: gained body weight
serum creatinine level, in words [4, 8]: increased
serum level of hepcidin, in words [4, 8]: reduced
S-Hepcidin ([4]; ARD 9 weeks, then sevuparin 10 mg/kg s.c. every day for 3 weeks with maintained ARD, ELISA, mean): 36.83^(18) nM
Hb [4, 9]: 10.80^(3) g/dL
Ht [4, 9]: 31.67^(6) %
Ret-He [4, 9]: 14.33^(15) pg
S-Crea [4, 9]: 0.73^(12) mg/dL
Wt [4, 9]: 15.00^(9) g
antifactor 11a activity (factor IIa): up to 10 IU/mg
serum level of hepcidin, in words ([5]; 2+7 weeks treatment): markedly reduced
blood level of reticulocyte hemoglobin (Ret-HE), in words [5, 10]: increased
body weight (wt), in words [5, 10]: increased
hematocrit (Ht), in words [5, 10]: increased
serum level of creatinine (s-Crea), in words [5, 10]: reduced
Hb [5, 11]: 9.45^(3) g/dL
Ht [5, 11]: 27.75^(8) %
Ret-He [5, 11]: 15.78^(23) pg
S-Crea [5, 11]: 0.78^(18) mg/dL
S-Hepcidin [5, 11]: 22.32^(28) nM
Wt [5, 11]: 25.75^(13) g
